Columns and labels:
Details in all cases: Compound concentration 1000.0 nM
[1] = biological target: Serine/threonine-protein kinase OSR1 (Homo sapiens) (UniProt O95747)
[2] = biological target: Calcium/calmodulin-dependent protein kinase kinase 2 (Homo sapiens) (UniProt Q96RR4)
[3] = biological target: Atypical kinase COQ8A, mitochondrial (Homo sapiens) (UniProt Q8NI60)
[4] = biological target: T1, Mitogen-activated protein kinase kinase kinase 5 (Homo sapiens) (UniProt Q99683)
T1 sequence (whole entry): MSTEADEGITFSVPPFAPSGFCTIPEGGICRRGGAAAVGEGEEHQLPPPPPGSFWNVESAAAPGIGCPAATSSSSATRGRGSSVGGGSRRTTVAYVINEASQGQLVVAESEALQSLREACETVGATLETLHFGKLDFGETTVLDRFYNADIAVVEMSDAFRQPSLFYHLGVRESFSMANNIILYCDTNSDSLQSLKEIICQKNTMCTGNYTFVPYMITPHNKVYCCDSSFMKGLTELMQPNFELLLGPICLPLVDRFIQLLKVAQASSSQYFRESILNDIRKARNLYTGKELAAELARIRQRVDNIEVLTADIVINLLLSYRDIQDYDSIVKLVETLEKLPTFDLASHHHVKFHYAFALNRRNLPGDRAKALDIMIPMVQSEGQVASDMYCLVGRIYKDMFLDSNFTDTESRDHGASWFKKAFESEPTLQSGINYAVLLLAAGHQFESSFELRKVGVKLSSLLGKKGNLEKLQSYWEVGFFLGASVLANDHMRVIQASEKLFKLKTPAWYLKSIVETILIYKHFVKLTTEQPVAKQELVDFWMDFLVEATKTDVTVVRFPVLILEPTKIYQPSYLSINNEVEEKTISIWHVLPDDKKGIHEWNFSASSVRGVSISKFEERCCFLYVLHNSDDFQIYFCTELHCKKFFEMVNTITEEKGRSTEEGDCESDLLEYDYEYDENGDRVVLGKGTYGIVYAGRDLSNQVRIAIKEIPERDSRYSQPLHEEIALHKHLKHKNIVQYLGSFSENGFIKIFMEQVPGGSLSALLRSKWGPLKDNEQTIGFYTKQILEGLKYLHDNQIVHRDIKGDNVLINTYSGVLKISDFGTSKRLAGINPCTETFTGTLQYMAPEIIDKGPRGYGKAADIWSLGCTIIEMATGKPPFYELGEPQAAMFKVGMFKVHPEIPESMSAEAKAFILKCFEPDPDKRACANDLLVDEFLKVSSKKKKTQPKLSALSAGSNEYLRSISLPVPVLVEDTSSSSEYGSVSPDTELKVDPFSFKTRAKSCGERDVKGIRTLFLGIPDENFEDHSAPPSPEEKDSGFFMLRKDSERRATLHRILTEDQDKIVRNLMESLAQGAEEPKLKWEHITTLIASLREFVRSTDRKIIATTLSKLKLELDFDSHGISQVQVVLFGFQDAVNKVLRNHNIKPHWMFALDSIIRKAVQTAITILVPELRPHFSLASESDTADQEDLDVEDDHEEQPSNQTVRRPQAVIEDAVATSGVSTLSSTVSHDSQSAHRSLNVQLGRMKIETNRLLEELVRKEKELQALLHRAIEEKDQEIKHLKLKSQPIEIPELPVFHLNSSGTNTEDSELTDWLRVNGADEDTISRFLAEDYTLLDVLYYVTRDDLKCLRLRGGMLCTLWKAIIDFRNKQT

[5] = biological target: Tyrosine-protein kinase receptor UFO (Homo sapiens) (UniProt P30530)
[6] = biological target: Tyrosine-protein kinase Fgr (Homo sapiens) (UniProt P09769)
[7] = biological target: Insulin-like growth factor 1 receptor (Homo sapiens) (UniProt P08069)
Sequence of Insulin-like growth factor 1 receptor (Homo sapiens) (P08069 31-736 limits assumed): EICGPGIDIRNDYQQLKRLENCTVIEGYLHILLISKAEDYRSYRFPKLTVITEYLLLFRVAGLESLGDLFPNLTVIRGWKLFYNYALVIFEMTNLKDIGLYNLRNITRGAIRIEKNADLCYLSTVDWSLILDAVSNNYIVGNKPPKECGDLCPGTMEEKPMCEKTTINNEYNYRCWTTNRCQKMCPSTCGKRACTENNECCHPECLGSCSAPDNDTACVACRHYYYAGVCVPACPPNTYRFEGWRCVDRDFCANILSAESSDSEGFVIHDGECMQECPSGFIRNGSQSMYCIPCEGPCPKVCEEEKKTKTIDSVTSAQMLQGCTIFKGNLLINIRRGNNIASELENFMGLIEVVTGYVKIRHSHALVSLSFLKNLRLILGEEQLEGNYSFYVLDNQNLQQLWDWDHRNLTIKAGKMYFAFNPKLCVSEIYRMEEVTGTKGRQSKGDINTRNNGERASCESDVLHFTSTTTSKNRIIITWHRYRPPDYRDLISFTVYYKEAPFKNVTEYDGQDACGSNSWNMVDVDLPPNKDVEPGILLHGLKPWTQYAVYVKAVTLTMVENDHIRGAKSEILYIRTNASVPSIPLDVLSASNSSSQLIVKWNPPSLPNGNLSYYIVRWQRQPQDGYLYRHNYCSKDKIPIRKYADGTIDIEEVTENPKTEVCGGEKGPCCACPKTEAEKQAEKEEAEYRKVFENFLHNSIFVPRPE
Sequence of Insulin-like growth factor 1 receptor (Homo sapiens) (P08069 741-1367 limits assumed): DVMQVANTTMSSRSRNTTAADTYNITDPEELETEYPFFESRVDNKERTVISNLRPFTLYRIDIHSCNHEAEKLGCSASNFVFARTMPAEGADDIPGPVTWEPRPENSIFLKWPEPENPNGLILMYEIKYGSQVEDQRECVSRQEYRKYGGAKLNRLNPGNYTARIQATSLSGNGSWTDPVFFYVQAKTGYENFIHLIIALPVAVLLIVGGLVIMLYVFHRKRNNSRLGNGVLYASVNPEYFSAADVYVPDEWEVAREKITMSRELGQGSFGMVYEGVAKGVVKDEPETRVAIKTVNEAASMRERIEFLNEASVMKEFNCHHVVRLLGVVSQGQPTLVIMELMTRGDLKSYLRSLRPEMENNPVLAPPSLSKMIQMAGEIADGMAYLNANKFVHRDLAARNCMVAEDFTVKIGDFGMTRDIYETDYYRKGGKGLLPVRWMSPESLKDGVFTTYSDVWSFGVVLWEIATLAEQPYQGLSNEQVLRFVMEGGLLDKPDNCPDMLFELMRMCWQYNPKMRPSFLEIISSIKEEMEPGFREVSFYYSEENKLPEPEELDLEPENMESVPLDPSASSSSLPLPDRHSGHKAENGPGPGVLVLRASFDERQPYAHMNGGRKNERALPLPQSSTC

[8] = biological target: Dual specificity mitogen-activated protein kinase kinase 7 (Homo sapiens) (UniProt O14733)
[9] = biological target: Serine/threonine-protein kinase TBK1 (Homo sapiens) (UniProt Q9UHD2)
Sequence of Serine/threonine-protein kinase TBK1 (Homo sapiens) (Q9UHD2 whole entry): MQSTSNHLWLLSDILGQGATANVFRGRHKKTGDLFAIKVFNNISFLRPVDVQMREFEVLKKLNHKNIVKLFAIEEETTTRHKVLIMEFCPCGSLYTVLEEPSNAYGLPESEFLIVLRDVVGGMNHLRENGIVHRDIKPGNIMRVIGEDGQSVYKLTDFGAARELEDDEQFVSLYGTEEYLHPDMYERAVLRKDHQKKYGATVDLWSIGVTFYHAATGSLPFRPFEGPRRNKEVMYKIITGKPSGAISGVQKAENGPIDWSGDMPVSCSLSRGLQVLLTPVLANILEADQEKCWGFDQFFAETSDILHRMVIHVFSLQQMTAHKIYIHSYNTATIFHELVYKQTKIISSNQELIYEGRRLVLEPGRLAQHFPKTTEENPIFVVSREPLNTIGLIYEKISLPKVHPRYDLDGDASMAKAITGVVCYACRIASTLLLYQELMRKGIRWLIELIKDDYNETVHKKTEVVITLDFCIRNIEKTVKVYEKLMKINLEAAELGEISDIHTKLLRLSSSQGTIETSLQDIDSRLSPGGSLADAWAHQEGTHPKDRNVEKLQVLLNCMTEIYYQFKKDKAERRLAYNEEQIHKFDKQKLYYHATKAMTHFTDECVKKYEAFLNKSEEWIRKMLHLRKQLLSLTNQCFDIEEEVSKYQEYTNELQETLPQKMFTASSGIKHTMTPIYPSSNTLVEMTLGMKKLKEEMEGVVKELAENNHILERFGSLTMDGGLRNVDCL

[10] = biological target: Membrane-associated tyrosine- and threonine-specific cdc2-inhibitory kinase (Homo sapiens) (UniProt Q99640)
[11] = biological target: Phosphatidylinositol 3-kinase catalytic subunit type 3 (Homo sapiens) (UniProt Q8NEB9)
[12] = biological target: MAP kinase-interacting serine/threonine-protein kinase 1 (Homo sapiens) (UniProt Q9BUB5)
Sequence of MAP kinase-interacting serine/threonine-protein kinase 1 (Homo sapiens) (Q9BUB5 whole entry, looked up): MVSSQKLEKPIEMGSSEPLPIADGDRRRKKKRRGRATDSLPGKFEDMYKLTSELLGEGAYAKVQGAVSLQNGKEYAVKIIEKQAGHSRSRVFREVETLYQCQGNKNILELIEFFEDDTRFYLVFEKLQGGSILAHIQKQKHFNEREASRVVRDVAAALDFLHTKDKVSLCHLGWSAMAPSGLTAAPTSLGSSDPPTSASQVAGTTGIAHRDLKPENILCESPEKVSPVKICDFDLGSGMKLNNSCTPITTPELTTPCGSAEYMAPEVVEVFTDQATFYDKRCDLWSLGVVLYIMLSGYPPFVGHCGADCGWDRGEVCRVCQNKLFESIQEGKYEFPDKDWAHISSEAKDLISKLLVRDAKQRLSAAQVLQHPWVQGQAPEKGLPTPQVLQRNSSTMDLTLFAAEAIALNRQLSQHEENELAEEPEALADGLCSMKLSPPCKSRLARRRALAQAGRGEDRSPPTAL

[13] = biological target: T2, Dual specificity mitogen-activated protein kinase kinase 3 (Homo sapiens) (UniProt P46734)
T2 sequence (whole entry): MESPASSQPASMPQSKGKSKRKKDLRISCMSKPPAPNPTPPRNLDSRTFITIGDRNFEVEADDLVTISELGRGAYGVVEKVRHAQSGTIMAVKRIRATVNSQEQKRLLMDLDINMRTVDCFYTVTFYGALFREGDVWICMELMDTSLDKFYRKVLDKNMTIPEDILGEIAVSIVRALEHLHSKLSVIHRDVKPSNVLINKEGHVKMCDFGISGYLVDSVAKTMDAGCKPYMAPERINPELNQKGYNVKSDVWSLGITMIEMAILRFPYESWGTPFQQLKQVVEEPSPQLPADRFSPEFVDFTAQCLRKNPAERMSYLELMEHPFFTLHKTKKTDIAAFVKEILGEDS

[14] = biological target: Hormonally up-regulated neu tumor-associated kinase (Homo sapiens) (UniProt P57058)
[15] = system: Tyrosine-protein kinase ABL1 (Homo sapiens), P00519 [H396P]
[16] = biological target: Serine/threonine-protein kinase PAK 5 (Homo sapiens) (UniProt Q9P286)
Sequence of Serine/threonine-protein kinase PAK 5 (Homo sapiens) (Q9P286 whole entry, looked up): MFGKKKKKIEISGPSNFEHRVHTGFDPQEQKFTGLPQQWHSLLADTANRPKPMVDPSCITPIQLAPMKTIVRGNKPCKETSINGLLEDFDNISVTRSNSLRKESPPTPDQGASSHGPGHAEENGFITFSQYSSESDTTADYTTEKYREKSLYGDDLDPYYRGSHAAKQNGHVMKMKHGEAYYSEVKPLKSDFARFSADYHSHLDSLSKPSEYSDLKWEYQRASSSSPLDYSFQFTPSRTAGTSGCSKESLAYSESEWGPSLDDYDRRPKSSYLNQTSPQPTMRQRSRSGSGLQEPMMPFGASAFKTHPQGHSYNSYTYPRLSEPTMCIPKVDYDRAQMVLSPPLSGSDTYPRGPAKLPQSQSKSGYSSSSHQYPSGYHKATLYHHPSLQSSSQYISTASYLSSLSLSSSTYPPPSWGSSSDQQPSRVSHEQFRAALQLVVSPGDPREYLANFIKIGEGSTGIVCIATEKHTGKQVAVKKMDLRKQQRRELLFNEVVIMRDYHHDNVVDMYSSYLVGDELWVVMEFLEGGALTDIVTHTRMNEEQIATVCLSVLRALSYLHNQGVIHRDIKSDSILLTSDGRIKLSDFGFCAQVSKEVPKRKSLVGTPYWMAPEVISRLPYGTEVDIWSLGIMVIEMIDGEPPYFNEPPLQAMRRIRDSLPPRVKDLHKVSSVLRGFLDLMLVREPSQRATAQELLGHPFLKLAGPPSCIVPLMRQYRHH

Measured: residual activity

Sequence of Serine/threonine-protein kinase OSR1 (Homo sapiens) (O95747 2-527 limits assumed): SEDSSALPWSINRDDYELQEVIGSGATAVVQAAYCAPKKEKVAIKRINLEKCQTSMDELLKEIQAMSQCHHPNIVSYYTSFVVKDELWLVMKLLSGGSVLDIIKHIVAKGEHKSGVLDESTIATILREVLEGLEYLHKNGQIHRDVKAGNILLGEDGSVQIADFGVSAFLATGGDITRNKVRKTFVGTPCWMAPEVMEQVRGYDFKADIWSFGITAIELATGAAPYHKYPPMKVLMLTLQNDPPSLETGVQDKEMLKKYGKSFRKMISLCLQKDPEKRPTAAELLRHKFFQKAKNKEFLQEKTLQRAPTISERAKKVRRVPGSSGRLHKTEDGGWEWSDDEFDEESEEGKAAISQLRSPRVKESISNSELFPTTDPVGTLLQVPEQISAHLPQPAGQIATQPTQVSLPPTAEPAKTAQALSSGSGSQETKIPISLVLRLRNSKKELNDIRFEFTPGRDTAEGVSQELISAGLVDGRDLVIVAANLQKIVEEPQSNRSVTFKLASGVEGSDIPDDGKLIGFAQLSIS
Sequence of Calcium/calmodulin-dependent protein kinase kinase 2 (Homo sapiens) (Q96RR4 2-588 limits assumed): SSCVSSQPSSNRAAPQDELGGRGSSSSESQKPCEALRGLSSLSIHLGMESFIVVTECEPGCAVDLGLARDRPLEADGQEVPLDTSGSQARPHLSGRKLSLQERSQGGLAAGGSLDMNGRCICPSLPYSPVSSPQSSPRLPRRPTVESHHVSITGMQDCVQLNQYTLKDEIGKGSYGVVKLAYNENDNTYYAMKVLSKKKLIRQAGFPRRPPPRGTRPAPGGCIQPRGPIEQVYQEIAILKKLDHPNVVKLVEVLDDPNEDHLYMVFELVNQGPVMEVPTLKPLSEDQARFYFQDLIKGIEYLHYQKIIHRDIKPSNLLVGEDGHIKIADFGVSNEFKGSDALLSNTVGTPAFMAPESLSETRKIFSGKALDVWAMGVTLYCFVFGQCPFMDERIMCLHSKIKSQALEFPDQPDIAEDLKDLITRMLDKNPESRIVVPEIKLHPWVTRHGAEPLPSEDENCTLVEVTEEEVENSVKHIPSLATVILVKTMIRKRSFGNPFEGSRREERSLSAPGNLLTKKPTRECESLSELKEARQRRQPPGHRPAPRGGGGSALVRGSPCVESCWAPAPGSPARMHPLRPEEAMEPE
Sequence of Atypical kinase COQ8A, mitochondrial (Homo sapiens) (Q8NI60 163-647 limits assumed): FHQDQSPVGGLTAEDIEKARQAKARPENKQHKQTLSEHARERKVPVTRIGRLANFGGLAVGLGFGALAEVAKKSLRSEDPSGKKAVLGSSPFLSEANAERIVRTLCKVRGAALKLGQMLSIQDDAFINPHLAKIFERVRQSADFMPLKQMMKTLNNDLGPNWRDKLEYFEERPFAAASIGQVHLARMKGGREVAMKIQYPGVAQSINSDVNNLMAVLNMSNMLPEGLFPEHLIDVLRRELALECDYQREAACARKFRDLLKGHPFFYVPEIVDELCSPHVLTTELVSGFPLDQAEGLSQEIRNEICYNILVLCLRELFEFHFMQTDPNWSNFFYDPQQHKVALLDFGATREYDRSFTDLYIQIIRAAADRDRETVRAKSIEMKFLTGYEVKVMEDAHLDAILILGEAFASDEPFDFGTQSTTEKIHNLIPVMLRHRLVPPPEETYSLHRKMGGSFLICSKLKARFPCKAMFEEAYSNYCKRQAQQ

CN(C)C(=O)Cn1cc(-c2nc(C3(c4ccc(-c5cnc(N)nc5)cc4)CC3)no2)cn1 [BI 0153]
inactive: [1] 82% | [2] 100% | [3] 99% | [4] 91% | [5] 93% | [6] 100% | [7] 85% | [8] 87% | [9] 87% | [10] 90% | [11] 96% | [12] 85% | [13] 71% | [14] 96% | [15] 100% | [16] 88%

CN(C)C(=O)Cn1cc(-c2nc([C@@](C)(c3ccc(-c4cnc(N)nc4)cc3)C3CC3)no2)cn1 [BI 665915]
inactive: [1] 86% | [2] 100% | [3] 100% | [4] 99% | [5] 98% | [6] 100% | [7] 100% | [8] 94% | [9] 85% | [10] 88% | [11] 89% | [12] 85% | [13] 83% | [14] 100% | [15] 80% | [16] 100%
